Measured values as given in patent US20250115620A1, “BRIDGED TRICYCLIC CARBAMOYLPYRIDONE COMPOUNDS AND USES THEREOF” (Gilead Sciences, Inc., priority 2022, published 2025).
Read-outs that look alike come from different tables or passages of the source.

Columns and labels:
pLAI reporter virus = experiment: microbe, parasite or virus in culture; assay type: cell-based, HIV; conditions: Human immunodeficiency virus 1, MT4, 72 h
HIV-1 (IIIB) = experiment: microbe, parasite or virus in culture; assay type: cell-based; conditions: Human immunodeficiency virus 1, IIIB, MT4, 120 h, read-out: MT4 EC50
in vitro = conditions: human, uninfected MT-4 cells
Protocol: Compounds were serially diluted (1:3) in DMSO on 384-well polypropylene plates and further diluted 200-fold into complete RPMI media (10% FBS, 1% P/S) using the Biotek Micro Flow and Labcyte ECHO acoustic dispenser. […] Infected and uninfected MT-4 cells were further diluted in complete RPMI media and added to each plate using a Micro Flow dispenser. After 5 days incubation in a humidified and temperature controlled incubator (37° C.), Cell Titer Glo (Promega) was added to the assay plates and chemiluminescence read using an Envision plate-reader.
Assays were performed as above except uninfected MT-4 cells were added to each well containing test compound. In addition, 10 μM puromycin was added to the last column of each assay plate to assess a base level of cytotoxicity.

[1] = HIV-1 (IIIB) in MT-4 cells, 5 days incubation, Cell Titer Glo

SMILES	EC50 (pLAI reporter virus; read-out: RLUC 50% HS EC50)	EC50 (pLAI reporter virus; read-out: RLUC CCM EC50)	EC50 (HIV-1 (IIIB); [1])	CC50 at 5 days (in vitro)	EC50 (HIV-1 (IIIB))
C[C@H]1CC[C@]2(CC(C(C)(F)F)=NO2)[C@H]2CN1C(=O)c1c(O)c(=O)c(C(=O)NCc3c(F)cc(F)cc3F)cn12 [Example 71, (3′S,5S,7′R)-3-(1,1-difluoroethyl)-12′-hydroxy-3′-methyl-1′,11′-dioxo-N-(2,4,6-trifluorobenzyl)-1′,4′,5′,11′-tetrahydro-3′H,4H,7′H-spiro[isoxazole-5,6′-[2,7]methanopyrido[1,2-a][1,4]diazonine]-10′-carboxamide]	82.4 nM	0.2 nM	3.3 nM	32100 nM	–
C[C@H]1CC[C@@]2(OC[C@@H](Cc3ccccc3)O2)[C@H]2CN1C(=O)c1c(O)c(=O)c(C(=O)NCc3c(F)cc(F)cc3F)cn12 (single isomer, unassigned) [169 (peak 1)]	10 nM	1.4 nM	4.9 nM	39000 nM	–
C[C@H]1CC[C@]2(CC(=O)N(Cc3ccc(Br)cc3)O2)[C@H]2CN1C(=O)c1c(O)c(=O)c(C(=O)NCc3c(F)cc(F)cc3F)cn12 [Example 158, (3′S,5S,7′R)-2-(4-bromobenzyl)-12′-hydroxy-3′-methyl-1′,3,11′-trioxo-N-(2,4,6-trifluorobenzyl)-1′,4′,5′,11′-tetrahydro-3′H,7′H-spiro[isoxazolidine-5,6′-[2,7]methanopyrido[1,2-a][1,4]diazonine]-10′-carboxamide]	3.2 nM	0.8 nM	1.7 nM	2120 nM	–
CC1C[C@@]2(CC[C@H](C)N3C[C@H]2n2cc(C(=O)NCc4c(F)cc(F)cc4F)c(=O)c(O)c2C3=O)OCO1 (stereo partly drawn) [Example 124, (3′S,4R,7′R)-12′-hydroxy-3′,6-dimethyl-1′,11′-dioxo-N-(2,4,6-trifluorobenzyl)-1′,4′,5′,11′-tetrahydro-3′H,7′H-spiro[[1,3]dioxane-4,6′-[2,7]methanopyrido[1,2-a][1,4]diazonine]-10′-carboxamide]	0.4 nM	0.2 nM	0.8 nM	29800 nM	–
C[C@H]1CC[C@]2(CC(N3CCCC3)=NO2)[C@H]2CN1C(=O)c1c(O)c(=O)c(C(=O)NCc3c(F)cc(F)cc3F)cn12 [Example 75, (3′S,5S,7′R)-12′-hydroxy-3′-methyl-1′,11′-dioxo-3-(pyrrolidin-1-yl)-N-(2,4,6-trifluorobenzyl)-1′,4′,5′,11′-tetrahydro-3′H,4H,7′H-spiro[isoxazole-5,6′-[2,7]methanopyrido[1,2-a][1,4]diazonine]-10′-carboxamide]	1.8 nM	0.3 nM	1.8 nM	14100 nM	–
COC1=NS[C@]2(CC[C@H](C)N3C[C@H]2n2cc(C(=O)NCc4ccc(F)cc4F)c(=O)c(O)c2C3=O)C1 [Example 145, (3′S,5R,7′R)—N-(2,4-difluorobenzyl)-12′-hydroxy-3-methoxy-3′-methyl-1′,11′-dioxo-1′,4′,5′,11′-tetrahydro-3′H,4H,7′H-spiro[isothiazole-5,6′-[2,7]methanopyrido[1,2-a][1,4]diazonine]-10′-carboxamide]	7.5 nM	1.1 nM	3.8 nM	≥ 50000 nM	–
CC1=NO[C@@]2(CC[C@H](C)N3C[C@H]2n2cc(C(=O)NCc4ccc(F)c(Cl)c4F)c(=O)c(O)c2C3=O)[C@H]1C [Example 34, (3′S,4S,5S,7′R)—N-(3-chloro-2,4-difluorobenzyl)-12′-hydroxy-3,3′,4-trimethyl-1′,11′-dioxo-1′,4′,5′,11′-tetrahydro-3′H,4H,7′H-spiro[isoxazole-5,6′-[2,7]methanopyrido[1,2-a][1,4]diazonine]-10′-carboxamide]	76.7 nM	0.2 nM	0.6 nM	13600 nM	–
COC1=NO[C@@]2(CC[C@H](C)N3C[C@H]2n2cc(C(=O)NCc4c(F)cc(F)cc4F)c(=O)c(O)c2C3=O)[C@H]1C [Example 85, (3′S,4R,5S,7′R)-12′-hydroxy-3-methoxy-3′,4-dimethyl-1′,11′-dioxo-N-(2,4,6-trifluorobenzyl)-1′,4′,5′,11′-tetrahydro-3′H,4H,7′H-spiro[isoxazole-5,6′-[2,7]methanopyrido[1,2-a][1,4]diazonine]-10′-carboxamide]	28.7 nM	0.2 nM	1 nM	29600 nM	–
C[C@H]1CC[C@]2(CC(C(F)(F)F)=NO2)[C@H]2CN1C(=O)c1c(O)c(=O)c(C(=O)NCc3c(F)cc(F)cc3F)cn12 [Example 73, (3′S,5S,7′R)-12′-hydroxy-3′-methyl-1′,11′-dioxo-N-(2,4,6-trifluorobenzyl)-3-(trifluoromethyl)-1′,4′,5′,11′-tetrahydro-3′H,4H,7′H-spiro[isoxazole-5,6′-[2,7]methanopyrido[1,2-a][1,4]diazonine]-10′-carboxamide]	65.2 nM	0.2 nM	1.1 nM	31200 nM	–
COC1=NO[C@@]2(CC[C@H](C)N3C[C@H]2n2cc(C(=O)NCc4ccc(F)c(Cl)c4F)c(=O)c(O)c2C3=O)C1 [Example 49, (3′S,5S,7′R)—N-(3-chloro-2,4-difluorobenzyl)-12′-hydroxy-3-methoxy-3′-methyl-1′,11′-dioxo-1′,4′,5′,11′-tetrahydro-3′H,4H,7′H-spiro[isoxazole-5,6′-[2,7]methanopyrido[1,2-a][1,4]diazonine]-10′-carboxamide]	124 nM	0.3 nM	0.7 nM	29800 nM	–
C[C@H]1CC[C@]2(CO[C@H](Cc3ccccc3)O2)[C@H]2CN1C(=O)c1c(O)c(=O)c(C(=O)NCc3c(F)cc(F)cc3F)cn12 [Example 134, (2S,3′S,4R,7′R)-2-benzyl-12′-hydroxy-3′-methyl-1′,11′-dioxo-N-(2,4,6-trifluorobenzyl)-1′,4′,5′,11′-tetrahydro-3′H,7′H-spiro[[1,3]dioxolane-4,6′-[2,7]methanopyrido[1,2-a][1,4]diazonine]-10′-carboxamide]	6.3 nM	1.9 nM	–	8500 nM	4.8 nM
C[C@H]1CC[C@@]2(CC(CF)=NO2)[C@H]2CN1C(=O)c1c(O)c(=O)c(C(=O)NCc3ccc(F)cc3F)cn12 [Example 18, (3′S,5R,7′R)—N-(2,4-difluorobenzyl)-3-(fluoromethyl)-12′-hydroxy-3′-methyl-1′,11′-dioxo-1′,4′,5′,11′-tetrahydro-3′H,4H,7′H-spiro[isoxazole-5,6′-[2,7]methanopyrido[1,2-a][1,4]diazonine]-10′-carboxamide]	2.4 nM	1.6 nM	4.5 nM	≥ 50000 nM	–
C[C@H]1CC[C@]2(CC(Br)=NO2)[C@H]2CN1C(=O)c1c(O)c(=O)c(C(=O)NCc3ccc(F)cc3F)cn12 [Example 44, (3′S,5S,7′R)-3-bromo-N-(2,4-difluorobenzyl)-12′-hydroxy-3′-methyl-1′,11′-dioxo-1′,4′,5′,11′-tetrahydro-3′H,4H,7′H-spiro[isoxazole-5,6′-[2,7]methanopyrido[1,2-a][1,4]diazonine]-10′-carboxamide]	160 nM	0.1 nM	0.7 nM	24400 nM	–
COC1=NO[C@@]2(CC[C@H](C)N3C[C@H]2n2cc(C(=O)NCc4c(F)cc(F)cc4F)c(=O)c(O)c2C3=O)[C@H]1O [Example 84, (3′S,4R,5R,7′R)-4,12′-dihydroxy-3-methoxy-3′-methyl-1′,11′-dioxo-N-(2,4,6-trifluorobenzyl)-1′,4′,5′,11′-tetrahydro-3′H,4H,7′H-spiro[isoxazole-5,6′-[2,7]methanopyrido[1,2-a][1,4]diazonine]-10′-carboxamide]	22.3 nM	0.3 nM	1.6 nM	25800 nM	–
C[C@H]1CC[C@]2(CC(F)=NO2)[C@H]2CN1C(=O)c1c(O)c(=O)c(C(=O)NCc3c(F)cc(F)cc3F)cn12 [Example 82, (3′S,5S,7′R)-3-fluoro-12′-hydroxy-3′-methyl-1′,11′-dioxo-N-(2,4,6-trifluorobenzyl)-1′,4′,5′,11′-tetrahydro-3′H,4H,7′H-spiro[isoxazole-5,6′-[2,7]methanopyrido[1,2-a][1,4]diazonine]-10′-carboxamide]	186 nM	1.3 nM	7.1 nM	5460 nM	–
[2H]C([2H])([2H])OC1=NO[C@@]2(CC[C@H](C)N3C[C@H]2n2cc(C(=O)NCc4ccc(F)cc4F)c(=O)c(O)c2C3=O)C1 [Example 153, (3′S,5S,7′R)—N-(2,4-difluorobenzyl)-12′-hydroxy-3-(methoxy-d3)-3′-methyl-1′,11′-dioxo-1′,4′,5′,11′-tetrahydro-3′H,4H,7′H-spiro[isoxazole-5,6′-[2,7]methanopyrido[1,2-a][1,4]diazonine]-10′-carboxamide]	16.1 nM	0.2 nM	0.9 nM	17600 nM	–
CC1=NO[C@@]2(CC[C@H](C)N3C[C@H]2n2cc(C(=O)NCc4ccc(F)cc4F)c(=O)c(O)c2C3=O)C1=O [Example 29, (3′S,5R,7′R)—N-(2,4-difluorobenzyl)-12′-hydroxy-3,3′-dimethyl-1′,4,11′-trioxo-1′,4′,5′,11′-tetrahydro-3′H,4H,7′H-spiro[isoxazole-5,6′-[2,7]methanopyrido[1,2-a][1,4]diazonine]-10′-carboxamide]	168 nM	0.8 nM	1.7 nM	≥ 50000 nM	–
CO[C@@H]1CS[C@@]2(CC[C@H](C)N3C[C@H]2n2cc(C(=O)NCc4c(F)cc(F)cc4F)c(=O)c(O)c2C3=O)O1 (single isomer, unassigned) [170 (peak 4)]	14.5 nM	0.3 nM	1.7 nM	33100 nM	–
